# ChEMBL document CHEMBL3046402, “Synthesis of substituted benzo[d]thiazol-2-ylcarbamates as potential anticonvulsants” (2013)
# Calls of active or inactive are those of the source. No cut-off for these calls is given here.
# Experiments:
# Mus musculus [1] = assay: Anticonvulsant activity against maximal electric shock-induced seizures in Swiss albino Mus musculus (mouse) assessed as time duration of tonic flexions at 35 mg/kg administered 30 min prior to maximal electric shock-challenge (reference value: 0 secs); type: functional
# Mus musculus [2] = assay: Anticonvulsant activity in Swiss albino Mus musculus (mouse) assessed protection against PTZ-induced clonic convulsion at 35 mg/kg administered 60 min prior to PTZ-challenge measured up to 30 min relative to control; type: functional
# Mus musculus [3] = assay: Anticonvulsant activity in Swiss albino Mus musculus (mouse) assessed as protection against maximal electric shock-induced death at 35 mg/kg administered 30 min prior to maximal electric shock-challenge; type: functional, organism-based; set-up: dose 35 mg/kg
# Mus musculus [4] = assay: Anticonvulsant activity in Swiss albino Mus musculus (mouse) assessed as time duration of maximal electric shock-induced tonic extension at 35 mg/kg administered 30 min prior to maximal electric shock-challenge (reference value: 20.66 +/- 0.8433 secs); type: functional
# Mus musculus [5] = assay: Anticonvulsant activity in Swiss albino Mus musculus (mouse) assessed as latency time of maximal electric shock-induced clonus onset at 35 mg/kg administered 30 min prior to maximal electric shock-challenge (reference value: 3.16 +/- 0.0833 min); type: functional
# Mus musculus [6] = assay: Anticonvulsant activity in Swiss albino Mus musculus (mouse) assessed as time of onset of PTZ-induced clonic convulsion at 35 mg/kg administered 60 min prior to PTZ-challenge (reference value: 59.166 +/- 0.04216 Secs); type: functional
# Mus musculus [7] = assay: Anticonvulsant activity in Swiss albino Mus musculus (mouse) assessed as protection against maximal electric shock-induced death at 20 mg/kg administered 30 min prior to maximal electric shock-challenge; type: functional, organism-based; set-up: dose 20 mg/kg
# Mus musculus [8] = assay: Anticonvulsant activity against maximal electric shock-induced seizures in Swiss albino Mus musculus (mouse) assessed as time duration of tonic flexions at 20 mg/kg administered 30 min prior to maximal electric shock-challenge (reference value: 0 secs); type: functional
# Mus musculus [9] = assay: Anticonvulsant activity in Swiss albino Mus musculus (mouse) assessed protection against PTZ-induced clonic convulsion at 20 mg/kg administered 60 min prior to PTZ-challenge measured up to 30 min relative to control; type: functional
# Mus musculus [10] = assay: Anticonvulsant activity in Swiss albino Mus musculus (mouse) assessed as latency time of maximal electric shock-induced clonus onset at 20 mg/kg administered 30 min prior to maximal electric shock-challenge (reference value: 3.16 +/- 0.0833 min); type: functional
# Mus musculus [11] = assay: Anticonvulsant activity in Swiss albino Mus musculus (mouse) assessed as time duration of maximal electric shock-induced tonic extension at 20 mg/kg administered 30 min prior to maximal electric shock-challenge (reference value: 20.66 +/- 0.8433 secs); type: functional
SMILES,Time (Mus musculus [1]),Activity (Mus musculus [2]),Activity (Mus musculus [3]),Time (Mus musculus [4]),Time (Mus musculus [5]),Time (Mus musculus [6]),Activity (Mus musculus [7]),Time (Mus musculus [8]),Activity (Mus musculus [9]),Time (Mus musculus [10]),Time (Mus musculus [11])
CCOC(=O)Nc1nc2c(C)cccc2s1,7.33 s,83.33%,Active,0 s,10.36 min,85.166 s,,,,,
CCOC(=O)Nc1nc2ccccc2s1,7.29 s,83.33%,Active,0 s,11.18 min,86.66 s,,,,,
O=C(Nc1nc2ccccc2s1)Oc1ccccc1,9.54 s,100%,Active,0 s,11.47 min,,,,,,
CCOC(=O)Nc1nc2ccc(C)cc2s1,6.24 s,100%,Active,0 s,12.55 min,,,,,,
Cc1cccc2sc(NC(=O)Oc3ccccc3)nc12,5.48 s,83.33%,Active,0 s,9.58 min,75.166 s,,,,,
O=C(Nc1nc2ccc(Cl)cc2s1)Oc1ccccc1,8.34 s,66.66%,Active,0 s,11.2 min,70.83 s,,,,,
COc1ccc2nc(NC(=O)Oc3ccccc3)sc2c1,11.08 s,66.66%,Active,0 s,4.675 min,80.5 s,,,,,
CCOC(=O)Nc1nc2ccc([N+](=O)[O-])cc2s1,7.44 s,83.33%,Active,0 s,8.37 min,80.5 s,,,,,
O=C1NC(=O)C(c2ccccc2)(c2ccccc2)N1 [PHENYTOIN],,,,,,,Active,5.34 s,100%,13.39 min,0 s
CCOC(=O)Nc1nc2ccc(CC)cc2s1,8.12 s,83.33%,Active,0 s,10.415 min,83 s,,,,,
CCOC(=O)Nc1nc2ccc(OC)cc2s1,6.4 s,100%,Active,0 s,9.56 min,,,,,,
CCc1ccc2nc(NC(=O)Oc3ccccc3)sc2c1,5.2916 s,83.33%,Active,0 s,7.59 min,86 s,,,,,
CCOC(=O)Nc1nc2ccc(Cl)cc2s1,9.27 s,66.66%,Active,0 s,5.4 min,71.83 s,,,,,
O=C(Nc1nc2ccc([N+](=O)[O-])cc2s1)Oc1ccccc1,6.32 s,100%,Active,0 s,10.34 min,,,,,,
Cc1ccc2nc(NC(=O)Oc3ccccc3)sc2c1,6.74 s,100%,Active,0 s,13.28 min,,,,,,
